Results from patent US20230398130A1, “METHODS AND COMPOSITIONS FOR DIFFERENTIATING STEM CELLS” (Massachusetts Institute of Technology, priority 2020, published 2023).

Tests used:
[1] = test system: ISC-enriched organoids; test: Primary screen, 384-well 2.5-D organoid differentiation (ENR+CD, 6 days): carbachol-induced lysozyme secretion (LYZ.S); type: cell-based, murine; conditions: for Dose.FC.LYZ.S: FC vs plate median; for Dose.FC.LYZ.S (log 2 fold change): vs plate median
Description: (§1) High-throughput screening.

[2] = test system: ISC-enriched organoids; test: Primary screen, 384-well 2.5-D organoid differentiation (ENR+CD, 6 days): basal lysozyme secretion (LYZ.NS); type: cell-based, murine; conditions: for Dose.FC.LYZ.NS: FC vs plate median; for Z.LYZ.NS: standard z score of FC; for Dose.FC.LYZ.NS (log 2 fold change): vs plate median
Description: as §1

[3] = test system: ISC-enriched organoids; test: Primary screen, 384-well 2.5-D organoid differentiation (ENR+CD, 6 days, Target Selective Inhibitor Library, vs whole-plate median): ATP (CellTiter-Glo 3D, CTG); conditions: for Dose.FC.CTG: FC vs plate median; for Z.CTG: standard z score of FC; for Dose.FC.CTG (log 2 fold change): vs plate median
[4] = dose 0.08 uM (1st of 4 lines per treatment; dose not printed in this part)
[5] = dose 0.40 uM (2nd of 4 lines per treatment; dose not printed in this part)
[6] = dose 2.00 uM (3rd of 4 lines per treatment; dose not printed in this part)
[7] = dose 10.00 uM (4th of 4 lines per treatment; dose not printed in this part)
[8] = primary screen, dose 0.08 uM, ENR+CD 6 days
[9] = primary screen, dose 0.40 uM, ENR+CD 6 days
[10] = primary screen, dose 2.00 uM, ENR+CD 6 days
[11] = primary screen, dose 10.00 uM, ENR+CD 6 days

## O=C(NNc1ccccc1)c1ccncc1 [PluriSIn #1 (NSC 14613)]
[1]; Dose 0.08 uM, primary screen
  Dose.FC.LYZ.S: 0.057 log 2 fold change
[1]; Dose 0.40 uM, primary screen
  Dose.FC.LYZ.S: −0.007 log 2 fold change
[1]; Dose 2.00 uM, primary screen
  Dose.FC.LYZ.S: −0.133 log 2 fold change
[1]; Dose 10.00 uM, primary screen
  Dose.FC.LYZ.S: −0.372 log 2 fold change
[2]; Dose 0.08 uM, primary screen
  Dose.FC.LYZ.NS: 0.083 log 2 fold change
[2]; Dose 0.08 uM
  Z.LYZ.NS: 0.720
[2]; Dose 0.40 uM, primary screen
  Dose.FC.LYZ.NS: 0.004 log 2 fold change
[2]; Dose 0.40 uM
  Z.LYZ.NS: 0.039
[2]; Dose 2.00 uM, primary screen
  Dose.FC.LYZ.NS: −0.107 log 2 fold change
[2]; Dose 2.00 uM
  Z.LYZ.NS: −0.929
[2]; Dose 10.00 uM, primary screen
  Dose.FC.LYZ.NS: −0.284 log 2 fold change
[2]; Dose 10.00 uM
  Z.LYZ.NS: −2.475
[3]; Dose 0.08 uM, primary screen
  Dose.FC.CTG: −0.146 log 2 fold change
[3]; Dose 0.08 uM
  Z.CTG: −0.349
[3]; Dose 0.40 uM, primary screen
  Dose.FC.CTG: −0.095 log 2 fold change
[3]; Dose 0.40 uM
  Z.CTG: −0.226
[3]; Dose 2.00 uM, primary screen
  Dose.FC.CTG: −0.433 log 2 fold change
[3]; Dose 2.00 uM
  Z.CTG: −1.035
[3]; Dose 10.00 uM, primary screen
  Dose.FC.CTG: −0.853 log 2 fold change
[3]; Dose 10.00 uM
  Z.CTG: −2.038

## O=C(Nc1ccncc1)c1cc([N+](=O)[O-])ccc1Cl [T0070907]
[1]; Dose 0.08 uM, primary screen
  Dose.FC.LYZ.S (log 2 fold change): −0.005
[1]; Dose 0.40 uM, primary screen
  Dose.FC.LYZ.S (log 2 fold change): −0.001
[1]; Dose 2.00 uM, primary screen
  Dose.FC.LYZ.S (log 2 fold change): 0.081
[1]; Dose 10.00 uM, primary screen
  Dose.FC.LYZ.S (log 2 fold change): −0.312
[2]; Dose 0.08 uM, primary screen
  Z.LYZ.NS (standard z score): 0.084
  Dose.FC.LYZ.NS (log 2 fold change): 0.010
[2]; Dose 0.40 uM, primary screen
  Z.LYZ.NS (standard z score): −0.029
  Dose.FC.LYZ.NS (log 2 fold change): −0.003
[2]; Dose 2.00 uM, primary screen
  Z.LYZ.NS (standard z score): 0.373
  Dose.FC.LYZ.NS (log 2 fold change): 0.043
[2]; Dose 10.00 uM, primary screen
  Z.LYZ.NS (standard z score): −1.897
  Dose.FC.LYZ.NS (log 2 fold change): −0.218
[3]; Dose 0.08 uM, primary screen
  Z.CTG (standard z score): 0.267
  Dose.FC.CTG (log 2 fold change): 0.112
[3]; Dose 0.40 uM, primary screen
  Z.CTG (standard z score): 0.062
  Dose.FC.CTG (log 2 fold change): 0.026
[3]; Dose 2.00 uM, primary screen
  Z.CTG (standard z score): 0.119
  Dose.FC.CTG (log 2 fold change): 0.050
[3]; Dose 10.00 uM, primary screen
  Z.CTG (standard z score): −1.806
  Dose.FC.CTG (log 2 fold change): −0.756

## N#Cc1c(O)c2c(-c3ccc(-c4ccccc4O)cc3)csc2[nH]c1=O [A-769662]
[1]; [4]
  SSMD.LYZ.S_Rep (strictly standardized mean difference): 0.365
  Z.LYZ.S (standard z score): 0.426
[1]; [5]
  SSMD.LYZ.S_Rep (strictly standardized mean difference): 0.472
  Z.LYZ.S (standard z score): 0.460
[1]; [6]
  SSMD.LYZ.S_Rep (strictly standardized mean difference): 0.488
  Z.LYZ.S (standard z score): 1.191
[1]; [7]
  SSMD.LYZ.S_Rep (strictly standardized mean difference): 0.119
  Z.LYZ.S (standard z score): 0.121
[1]; [8]
  Dose.FC.LYZ.S: 0.066 log 2 fold change
[1]; [9]
  Dose.FC.LYZ.S: 0.071 log 2 fold change
[1]; [10]
  Dose.FC.LYZ.S: 0.184 log 2 fold change
[1]; [11]
  Dose.FC.LYZ.S: 0.019 log 2 fold change
[2]; [4]
  SSMD.LYZ.NS_Rep (strictly standardized mean difference): 0.286
[2]; [5]
  SSMD.LYZ.NS_Rep (strictly standardized mean difference): 0.498
[2]; [6]
  SSMD.LYZ.NS_Rep (strictly standardized mean difference): 0.554
[2]; [7]
  SSMD.LYZ.NS_Rep (strictly standardized mean difference): 0.068
[2]; [8]
  Dose.FC.LYZ.NS: 0.045 log 2 fold change
[2]; primary screen, dose 0.08 uM
  Z.LYZ.NS: 0.394
[2]; [9]
  Dose.FC.LYZ.NS: 0.069 log 2 fold change
[2]; primary screen, dose 0.40 uM
  Z.LYZ.NS: 0.599
[2]; [10]
  Dose.FC.LYZ.NS: 0.054 log 2 fold change
[2]; primary screen, dose 2.00 uM
  Z.LYZ.NS: 0.473
[2]; [11]
  Dose.FC.LYZ.NS: 0.009 log 2 fold change
[2]; primary screen, dose 10.00 uM
  Z.LYZ.NS: 0.075
[3]; [4]
  SSMD.CTG_Rep (strictly standardized mean difference): −0.255
[3]; [5]
  SSMD.CTG_Rep (strictly standardized mean difference): 0.019
[3]; [6]
  SSMD.CTG_Rep (strictly standardized mean difference): −0.312
[3]; [7]
  SSMD.CTG_Rep (strictly standardized mean difference): −0.056
[3]; [8]
  Dose.FC.CTG: −0.074 log 2 fold change
[3]; primary screen, dose 0.08 uM
  Z.CTG: −0.177
[3]; [9]
  Dose.FC.CTG: 0.007 log 2 fold change
[3]; primary screen, dose 0.40 uM
  Z.CTG: 0.016
[3]; [10]
  Dose.FC.CTG: −0.127 log 2 fold change
[3]; primary screen, dose 2.00 uM
  Z.CTG: −0.304
[3]; [11]
  Dose.FC.CTG: −0.015 log 2 fold change
[3]; primary screen, dose 10.00 uM
  Z.CTG: −0.036

## CC(C)Oc1ccc(-c2cnc3c(-c4ccnc5ccccc45)cnn3c2)cc1 [DMH1]
[1]; Dose 0.08 uM, ENR+CD, 6 days
  Dose.FC.LYZ.S: 0.078 log 2 fold change
[1]; Dose 0.40 uM, ENR+CD, 6 days
  Dose.FC.LYZ.S: 0.054 log 2 fold change
[1]; Dose 2.00 uM, ENR+CD, 6 days
  Dose.FC.LYZ.S: 0.035 log 2 fold change
[1]; Dose 10.00 uM, ENR+CD, 6 days
  Dose.FC.LYZ.S: −0.092 log 2 fold change
[2]; Dose 0.08 uM, ENR+CD, 6 days
  Dose.FC.LYZ.NS: 0.018 log 2 fold change
[2]; Dose 0.08 uM
  Z.LYZ.NS: 0.155
[2]; Dose 0.40 uM, ENR+CD, 6 days
  Dose.FC.LYZ.NS: 0.026 log 2 fold change
[2]; Dose 0.40 uM
  Z.LYZ.NS: 0.231
[2]; Dose 2.00 uM, ENR+CD, 6 days
  Dose.FC.LYZ.NS: 0.014 log 2 fold change
[2]; Dose 2.00 uM
  Z.LYZ.NS: 0.124
[2]; Dose 10.00 uM, ENR+CD, 6 days
  Dose.FC.LYZ.NS: −0.075 log 2 fold change
[2]; Dose 10.00 uM
  Z.LYZ.NS: −0.657
[3]; Dose 0.08 uM, ENR+CD, 6 days
  Dose.FC.CTG: −0.031 log 2 fold change
[3]; Dose 0.08 uM
  Z.CTG: −0.075
[3]; Dose 0.40 uM, ENR+CD, 6 days
  Dose.FC.CTG: −0.079 log 2 fold change
[3]; Dose 0.40 uM
  Z.CTG: −0.188
[3]; Dose 2.00 uM, ENR+CD, 6 days
  Dose.FC.CTG: −0.002 log 2 fold change
[3]; Dose 2.00 uM
  Z.CTG: −0.004
[3]; Dose 10.00 uM, ENR+CD, 6 days
  Dose.FC.CTG: −0.001 log 2 fold change
[3]; Dose 10.00 uM
  Z.CTG: −0.003
